Test results reported in PMC9230797, “Integration of a Physiologically Based Pharmacokinetic and Pharmacodynamic Model for Tegoprazan and Its Metabolite: Application for Predicting Food Effect and Intragastric pH Alterations” (Pharmaceutics, 2022).
“And” between values parts separate entries of the source, which are not always exact repeats. Equal entries are not always repeated. Where two headings read alike, the source gives them in different places.

What was measured:
[1] = Microsomal metabolic stability in human liver microsomes; assay type: in vitro ADME
Method: The NADPH-generating system, glucose 6-phosphate (3.3 mM), 0.1 M potassium phosphate (pH 7.4), and human liver microsomes (HLMs; 0.5 mg/mL) were combined and incubated at 37 °C for 5 min. The organic content in the reaction mixture was 0.01% DMSO and less than 1% acetonitrile. Then, 1 μM tegoprazan and M1 were added to the reaction tube (total volume: 160 μL) and incubated at 37 °C for 0, 5, 15, 30, and 60 min. To terminate the reaction, 320 μL of acetonitrile containing an internal standard (100 ng/mL carbamazepine) was added to each sample. All experiments were performed in triplicate. The samples were vortexed for 5 min and centrifuged at 3000 rpm at 4 °C for 10 min. The concentrations of tegoprazan and M1 were determined by liquid chromatography–tandem mass spectrometry (LC–MS/MS). The concentrations of tegoprazan and M1 at 0 min were used to assess metabolism by HLMs based on changes in drug concentration over time. The terminal slope of linear regression was used to calculate the intrinsic clearance (CLint) of tegoprazan and M1. For the in vitro HLM system, CLint was calculated using Equation (1). CLint,mic (μL/min/mg protein) = k × Vincubation/Cincubation(1) where Vincubation is the incubation volume and Cincubation is the concentration of the microsomal protein.

[2] = biological target: T1, recombinant CYP2D6 (Homo sapiens, UniProt P10635); experiment: Intrinsic clearance using recombinant CYPs: CYP2D6; assay type: in vitro ADME; settings: 1 μM
T1 construct: purchased Corning Life Sciences (Woburn, MA, USA)
Method: The elimination profiles of tegoprazan and M1 were assessed using rCYPs. All the assay procedures were performed according to the manufacturer’s instructions. Master mix (1.399 mL), containing the NADPH-generating system, 3.3 mM of glucose 6-phosphate, PBS buffer, deionized water, and each rCYP (25 pmol/μL of CYP2C8, 2C19, and 2E1 and 50 pmol/μL of CYP3A4, 2C9, and 2D6), was added to a microtube and pre-incubated at 37 °C for 5 min. Next, 1 μM tegoprazan and M1 were added and incubated at 37 °C for 0, 5, 10, 20, 30, 45, and 60 min. A total of 100 μL of the sample, incubated for predefined duration, was transferred to a fresh e-tube. Next, 200 μL of acetonitrile containing tegoprazan-d6 (0.5 μM) was added, vortexed for 5 min, and centrifuged at 16,200× g and 4 °C for 10 min. The concentrations of the remaining tegoprazan and M1 were determined by LC–MS/MS. All experiments were performed in duplicate. CLint,rCYP levels were assessed using the results of the disappearance test. The terminal slope of the linear regression was used to determine the CLint for tegoprazan. The CLint resulting from rCYPs was calculated using Equation (3):(3) CLint,rCYP(μL/min/pmol CYP)=0.693/t1/2×1400/concentration of CYP […]

[3] = parameters: method as in PMID 31437865; settings: cited from earlier work
[4] = PBPK model input parameters predicted in SimCYP or obtained by parameter estimation; settings: human; initial model value; Vd of the clinical study applied; read-out: Vss
Source text: The tegoprazan and M1 PBPK models were developed using SimCYP® simulator, version 20 (Certara, Princeton, NJ, USA). Compound libraries were incorporated into an in vitro dataset, including the microsomal clearance of tegoprazan and M1. Observed PK parameters were obtained from the aforementioned clinical studies (Table 1 and Table 2).
The absorption of tegoprazan was applied to the advanced dissolution, absorption, and metabolism (ADAM) model, and the diffusion layer model (DLM) built into SimCYP® was applied to the considered formulation and pH-dependent solubility of tegoprazan. The permeability of tegoprazan was determined by a Caco-2 permeability assay and optimized by parameter estimation. Caco-2 permeability was optimized such that the predicted concentration–time profiles were fitted to clinical study data. The metabolite was generated by the metabolism of the parent drug; therefore, absorption was not considered.
The tissue distribution in the PBPK model was predicted by the distribution model (e.g., Rodger and Rowland method, Poulin and Theil method) and the tissue:plasma partition coefficient (Kp) scalar for specific organ or global values. Predicted systemic distribution was expressed as the volume of distribution in a steady state (Vss). […]

[5] = cited from earlier work
[6] = At 30 min after a high-fat meal, Observed (n = 12), single 50 mg, ref 34 (footnote; text: ref 16)

T1 sequence (P10635 whole entry): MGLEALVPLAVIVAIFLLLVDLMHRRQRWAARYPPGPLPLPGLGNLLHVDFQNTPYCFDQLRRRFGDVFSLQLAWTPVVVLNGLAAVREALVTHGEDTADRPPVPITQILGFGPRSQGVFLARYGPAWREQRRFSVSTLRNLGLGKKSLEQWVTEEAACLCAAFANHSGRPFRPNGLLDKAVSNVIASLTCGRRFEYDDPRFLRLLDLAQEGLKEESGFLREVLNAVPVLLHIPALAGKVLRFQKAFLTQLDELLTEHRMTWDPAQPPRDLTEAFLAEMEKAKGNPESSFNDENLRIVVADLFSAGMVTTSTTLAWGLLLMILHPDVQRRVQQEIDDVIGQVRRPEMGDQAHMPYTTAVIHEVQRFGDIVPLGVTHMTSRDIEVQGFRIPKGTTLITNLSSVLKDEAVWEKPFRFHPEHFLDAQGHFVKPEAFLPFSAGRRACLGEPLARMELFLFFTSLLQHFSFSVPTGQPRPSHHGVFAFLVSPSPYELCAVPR

- HLM intrinsic clearance (CLint,HLM) ([1]; 1 μM, HLM 0.5 mg/mL with NADPH, experimental data): 15.96 μL/min/mg protein
- percentage remaining after incubation ([1]; control sample without NADPH): 99.54% ± 5.32
- microsomal CLint at 1 μM ([1]; human, human liver microsomes, pH 7.4, 1 μM, HLM 0.5 mg/mL with NADPH, experimental data, read-out: HLM intrinsic clearance (CLint,HLM)): 16 µL/min/mg
- CLint, CYP2D6 ([2]; experimental data): 0.02 µL/min/pmol and 0.020 µL/min/pmol
- Slope (disappearance) ([2]; rCYP2D6): < 0.001
- Vd [4]: 1.55 L/kg
Structure (SMILES): Cc1nc2cc(C(=O)N(C)C)cc(O[C@H]3CCOc4cc(F)cc(F)c43)c2[nH]1 [tegoprazan]
- observed Cmax, Day 7 ([3]; 100 mg once daily for 7 days): 845.2 ± 40.7 ng/mL
- observed Cmax, Day 1 ([3]; 100 mg once daily): 1413.3 ± 24.7 ng/mL
- Tmax ([5]; At 30 min after a high-fat meal, Observed (n = 12), single 50 mg, median (min–max), ref 34 (footnote; text: ref 16)): 3.0 (0.5–8.0) h
- AUC0–24 h [5, 6]: 3017 ± 1194 ng·h/mL
- Cmax [5, 6]: 492.0 ± 293.9 ng/mL
- AUC0–24 h ([5]; Fast, Observed (n = 12), single 50 mg, mean ± SD, ref 34 (footnote; text: ref 16)): 2837 ± 1055 ng·h/mL
- Cmax ([5]; Fast, Observed (n = 12), single 50 mg, ref 34 (footnote; text: ref 16)): 803.0 ± 156.2 ng/mL
- Cmax ([5]; administered at 30 min after high-fat meal, observed): 492 ng/mL
- median Tmax ([5]; at 30 min before a high-fat meal, observed): 28.8 min
- Cmax ([5]; fasting state, observed): 803 ng/mL
- Cmax at 30 min after a high-fat meal compared with fasting state (decreased to) ([5]; observed): 38.7%
